Measurements as given in PubChem BioAssay (NCI).
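How tested: cells in 96-well plates exposed to compound for 48 hours at five concentrations. The concentration for 50% growth inhibition is given as GI50. TGI marks complete inhibition of growth.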

Tests used:
Assay in all cases: inhibition of tumour cell growth, NCI panel, 48 h
786-0 renal = tested on: 786-0 renal
HCC-2998 colon = tested on: HCC-2998 colon
HCT-116 colon = tested on: HCT-116 colon
HT29 colon = tested on: HT29 colon
IGROV1 ovarian = tested on: IGROV1 ovarian
KM12 colon = tested on: KM12 colon
OVCAR-4 ovarian = tested on: OVCAR-4 ovarian
OVCAR-5 ovarian = tested on: OVCAR-5 ovarian
SNB-75 CNS = tested on: SNB-75 CNS
UACC-257 melanoma = tested on: UACC-257 melanoma

Compound: NNc1ncnc2cccc(Cl)c12
- TGI (786-0 renal): > 100 µM
- TGI (HCC-2998 colon): > 100 µM
- TGI (HCT-116 colon): > 100 µM
- TGI (HT29 colon): > 100 µM
- TGI (IGROV1 ovarian): > 100 µM
- TGI (KM12 colon): > 100 µM
- TGI (OVCAR-4 ovarian): > 100 µM
- TGI (OVCAR-5 ovarian): > 100 µM
- TGI (SNB-75 CNS): > 100 µM
- TGI (UACC-257 melanoma): > 100 µM

Compound: CCCCC1N=CNc2c1ccc1c2[nH]c2ccccc21 (centres undefined)
- TGI (786-0 renal): 3.34 µM
- TGI (HCC-2998 colon): 3.01 µM
- TGI (HCT-116 colon): 3.32 µM
- TGI (HT29 colon): 3.95 µM
- TGI (IGROV1 ovarian): 8.18 µM
- TGI (KM12 colon): 41.8 µM
- TGI (OVCAR-4 ovarian): 8.15 µM
- TGI (OVCAR-5 ovarian): 9.07 µM
- TGI (SNB-75 CNS): 5.54 µM
- TGI (UACC-257 melanoma): 3.3 µM

Compound: Cn1cc(-c2ccc3nnc(C(F)(F)c4ccc5ncccc5c4)n3n2)cn1
- GI50 (786-0 renal): 46 µM
- TGI (786-0 renal): > 100 µM
- GI50 (HCC-2998 colon): > 100 µM
- TGI (HCC-2998 colon): > 100 µM
- GI50 (HCT-116 colon): 61.9 µM
- TGI (HCT-116 colon): > 100 µM
- GI50 (HT29 colon): 63.6 µM
- TGI (HT29 colon): > 100 µM
- GI50 (IGROV1 ovarian): 53.8 µM
- TGI (IGROV1 ovarian): > 100 µM
- GI50 (KM12 colon): 43.6 µM
- TGI (KM12 colon): > 100 µM
- GI50 (OVCAR-4 ovarian): 38.5 µM
- TGI (OVCAR-4 ovarian): > 100 µM
- GI50 (OVCAR-5 ovarian): 71.9 µM
- TGI (OVCAR-5 ovarian): > 100 µM
- GI50 (SNB-75 CNS): 22.2 µM
- TGI (SNB-75 CNS): > 92.4 µM
- GI50 (UACC-257 melanoma): > 100 µM
- TGI (UACC-257 melanoma): > 100 µM

Compound: O=C(O)CCCc1cc2c(s1)-c1cccc3cccc-2c13
- TGI (786-0 renal): > 100 µM
- TGI (HCC-2998 colon): 50.2 µM
- TGI (HCT-116 colon): > 100 µM
- TGI (HT29 colon): > 100 µM
- TGI (IGROV1 ovarian): > 100 µM
- TGI (KM12 colon): 42.3 µM
- TGI (OVCAR-4 ovarian): > 100 µM
- TGI (OVCAR-5 ovarian): > 100 µM
- TGI (SNB-75 CNS): > 100 µM
- TGI (UACC-257 melanoma): 53.9 µM

Compound: COC(=O)C1=Cc2cn(S(=O)(=O)c3ccc(C)cc3)c3cccc(c23)C(C=C(C)C)N1C(C)=O (centres undefined)
- TGI (786-0 renal): > 100 µM
- TGI (HCC-2998 colon): > 100 µM
- TGI (HCT-116 colon): > 100 µM
- TGI (HT29 colon): > 100 µM
- TGI (IGROV1 ovarian): > 100 µM
- TGI (KM12 colon): > 100 µM
- TGI (OVCAR-4 ovarian): > 100 µM
- TGI (OVCAR-5 ovarian): > 100 µM
- TGI (SNB-75 CNS): > 100 µM
- TGI (UACC-257 melanoma): > 100 µM

Compound: O=C1CCCCCCCCCCOC(=O)CCCCCCCCCCO1
- TGI (786-0 renal): > 100 µM
- TGI (HCC-2998 colon): > 100 µM
- TGI (HCT-116 colon): > 100 µM
- TGI (HT29 colon): > 100 µM
- TGI (IGROV1 ovarian): > 100 µM
- TGI (KM12 colon): > 100 µM
- TGI (OVCAR-4 ovarian): > 100 µM
- TGI (OVCAR-5 ovarian): > 100 µM
- TGI (SNB-75 CNS): > 100 µM
- TGI (UACC-257 melanoma): > 100 µM

Compound: Cn1c(=O)c(-c2c(Cl)cccc2Cl)cc2cnc(Nc3ccc(I)cc3)nc21
- GI50 (786-0 renal): 1.95 µM
- TGI (786-0 renal): 6.22 µM
- GI50 (HCC-2998 colon): < 0.0293 µM
- TGI (HCC-2998 colon): 0.213 µM
- TGI (HCT-116 colon): 0.305 µM
- GI50 (HT29 colon): 0.122 µM
- TGI (HT29 colon): 1.56 µM
- GI50 (IGROV1 ovarian): 0.506 µM
- TGI (IGROV1 ovarian): 3.77 µM
- GI50 (KM12 colon): 0.0452 µM
- TGI (KM12 colon): 1.5 µM
- GI50 (OVCAR-4 ovarian): 0.213 µM
- TGI (OVCAR-4 ovarian): 7.49 µM
- GI50 (OVCAR-5 ovarian): 0.536 µM
- TGI (OVCAR-5 ovarian): 3.69 µM
- GI50 (SNB-75 CNS): 0.017 µM
- TGI (SNB-75 CNS): 0.155 µM
- GI50 (UACC-257 melanoma): 2.38 µM
- TGI (UACC-257 melanoma): > 68.8 µM

Compound: Cc1cc2nc3c4cc([N+](=O)[O-])ccc4n(CCN(C)C)c3nc2cc1C
- GI50 (786-0 renal): 0.628 µM
- TGI (786-0 renal): 3.02 µM
- GI50 (HCC-2998 colon): 0.683 µM
- TGI (HCC-2998 colon): 2.34 µM
- GI50 (HCT-116 colon): 0.353 µM
- TGI (HCT-116 colon): 2.84 µM
- GI50 (HT29 colon): 0.387 µM
- TGI (HT29 colon): 2.33 µM
- GI50 (IGROV1 ovarian): 0.385 µM
- TGI (IGROV1 ovarian): 3.23 µM
- GI50 (KM12 colon): 0.56 µM
- TGI (KM12 colon): > 100 µM
- GI50 (OVCAR-4 ovarian): 0.527 µM
- TGI (OVCAR-4 ovarian): 6.6 µM
- GI50 (OVCAR-5 ovarian): 0.651 µM
- TGI (OVCAR-5 ovarian): 9.82 µM
- GI50 (SNB-75 CNS): 0.842 µM
- TGI (SNB-75 CNS): 2.7 µM
- GI50 (UACC-257 melanoma): 0.725 µM
- TGI (UACC-257 melanoma): 4.21 µM
